Structures can show the parent of a compound that is named as a salt. Each block holds one compound with its values, some of them ahead of it.
Tests used:
[1] = Dynamic Vapor Sorption (DVS); assay type: physicochemical; details: for DVS weight gain from 5 to 95% RH / DVS weight loss from 95 to 5% RH / DVS weight loss upon drying at 5% RH: 25° C.; for DVS weight gain from 5 to 95% RH: adsorption cycle 5 to 95% RH; for DVS weight loss from 95 to 5% RH: desorption cycle 95 to 5% RH
Protocol: DVS analysis was carried out using a TA Instruments Q5000 Dynamic Vapor Sorption analyzer. The instrument was calibrated with standard weights and a sodium bromide standard for humidity. Approximately 10-25 mg of sample was loaded into a metalcoated quartz pan for analysis. The sample was analyzed at 25° C. with a maximum equilibration time of one hour in 10% relative humidity (RH) steps from 5 to 95% RH (adsorption cycle) and from 95 to 5% RH (desorption cycle). The movement from one step to the next occurred either after satisfying the equilibrium criterion of 0.01% weight change or, if the equilibrium criterion was not met, after one hour. The percent weight change values were calculated using Microsoft Excel®.

[2] = Post-DVS XRPD (solid form after the DVS cycle); assay type: physicochemical; details: XRPD pattern after DVS
Source text: The Rigaku Smart-Lab X-ray diffraction system was configured for reflection Bragg-Brentano geometry using a line source X-ray beam. The x-ray source is a Cu Long Fine Focus tube that was operated at 40 kV and 44 mA. That source provides an incident beam profile at the sample that changes from a narrow line at high angles to a broad rectangle at low angles. Beam conditioning slits are used on the line X-ray source to ensure that the maximum beam size is less than 10 mm both along the line and normal to the line. The Bragg-Brentano geometry is a para-focusing geometry controlled by passive divergence and receiving slits with the sample itself acting as the focusing component for the optics. The inherent resolution of Bragg-Brentano geometry is governed in part by the diffractometer radius and the width of the receiving slit used. Typically, the Rigaku Smart-Lab is operated to give peak widths of 0.1° 2θ or less. The axial divergence of the X-ray beam is controlled by 5.0° Soller slits in both the incident and diffracted beam paths. Powder samples were prepared in a low background Si holder using light manual pressure to keep the sample surfaces flat and level with the reference surface of the sample holder. Each sample was analyzed from 2 to 40° 2θ using a continuous scan of 6° 2θ per minute with an effective step size of 0.02° 2θ. DVS analysis was carried out using a TA Instruments Q5000 Dynamic Vapor Sorption analyzer. The instrument was calibrated with standard weights and a sodium bromide standard for humidity. Approximately 10-25 mg of sample was loaded into a metalcoated quartz pan for analysis. The sample was analyzed at 25° C. with a maximum equilibration time of one hour in 10% relative humidity (RH) steps from 5 to 95% RH (adsorption cycle) and from 95 to 5% RH (desorption cycle). The movement from one step to the next occurred either after satisfying the equilibrium criterion of 0.01% weight change or, if the equilibrium criterion was not met, after one hour. The percent weight change values were calculated using Microsoft Excel®.

[3] = listed as Form A of the besylate salt of Compound 1
[4] = listed as Form A of the mesylate salt of Compound 1
[5] = listed as Form A of the sulfate salt of Compound 1
[6] = listed as Form A of the tosylate salt of Compound 1

DVS weight gain from 5 to 95% RH ([1]; listed as Besylate Form A): 4.31% gain from 5 to 95% RH
DVS weight gain from 5 to 95% RH [1, 3]: about 4.31%
DVS weight loss from 95 to 5% RH ([1]; listed as Besylate Form A): 4.31% loss from 95 to 5% RH
DVS weight loss from 95 to 5% RH [1, 3]: about 4.31%
DVS weight loss upon drying at 5% RH ([1]; listed as Besylate Form A): 0.16% loss upon drying at 5% RH
hygroscopicity ([1]; wording in text, based on DVS): moderately hygroscopic
Post-DVS XRPD ([2]; listed as Besylate Form A): Unchanged
Structure (SMILES): Cc1nc2cccc(N)c2c(=O)n1C1CCC(=O)NC1=O (centres unmarked) [Compound 1 besylate salt Form A, 3-(5-amino-2-methyl-4-oxo-4H-quinazolin-3-yl)-piperidine-2,6-dione]

DVS weight gain from 5 to 95% RH [1, 4]: about 9.79%
DVS weight gain from 5 to 95% RH ([1]; listed as Mesylate Form A): 9.79% gain from 5 to 95% RH
DVS weight loss from 95 to 5% RH [1, 4]: about 7.98%
DVS weight loss from 95 to 5% RH ([1]; listed as Mesylate Form A): 7.98% loss from 95 to 5% RH
DVS weight loss upon drying at 5% RH ([1]; listed as Mesylate Form A): 0.17% loss upon drying at 5% RH
Post-DVS XRPD ([2]; listed as Mesylate Form A): Mesylate Form B
Structure (SMILES): Cc1nc2cccc(N)c2c(=O)n1C1CCC(=O)NC1=O (centres unmarked) [Compound 1 mesylate salt Form A, 3-(5-amino-2-methyl-4-oxo-4H-quinazolin-3-yl)-piperidine-2,6-dione]

DVS weight gain from 5 to 95% RH [1, 5]: about 5.36%
DVS weight gain from 5 to 95% RH ([1]; listed as Sulfate Form A): 5.36% gain from 5 to 95% RH
DVS weight loss from 95 to 5% RH [1, 5]: about 5.63%
DVS weight loss from 95 to 5% RH ([1]; listed as Sulfate Form A): 5.63% loss from 95 to 5% RH
DVS weight loss upon drying at 5% RH ([1]; listed as Sulfate Form A): 0.21% loss on drying at 5% RH
Post-DVS XRPD [2]: unchanged
Post-DVS XRPD ([2]; listed as Sulfate Form A): Unchanged
Structure (SMILES): Cc1nc2cccc(N)c2c(=O)n1C1CCC(=O)NC1=O (centres unmarked) [Compound 1 sulfate salt Form A, 3-(5-amino-2-methyl-4-oxo-4H-quinazolin-3-yl)-piperidine-2,6-dione]

DVS weight gain from 5 to 95% RH [1, 6]: about 1.15%
DVS weight gain from 5 to 95% RH ([1]; listed as Tosylate Form A): 1.15% gain from 5 to 95% RH
DVS weight loss from 95 to 5% RH [1, 6]: about 1.17%
DVS weight loss from 95 to 5% RH ([1]; listed as Tosylate Form A): 1.17% loss from 95 to 5% RH
DVS weight loss upon drying at 5% RH ([1]; listed as Tosylate Form A): 0.14% loss upon drying at 5%
Post-DVS XRPD ([2]; listed as Tosylate Form A): Tosylate form B
Structure (SMILES): Cc1nc2cccc(N)c2c(=O)n1C1CCC(=O)NC1=O (centres unmarked) [Compound 1 tosylate salt Form A, 3-(5-amino-2-methyl-4-oxo-4H-quinazolin-3-yl)-piperidine-2,6-dione]
